Data: PubChem BioAssay AID248 (DTP/NCI, 2004)
Values joined by “and” are separate entries in the source; they are usually repeats but may differ in a detail not shown here. Identical values can stand only once. Toxic doses and inconclusive results are not listed. No stated cut-off is given here; in the data, active means T/C of 150% or more; inactive means T/C below 125%.

System: L1210 leukemia ip in BDF1 mice, survival T/C
Assay: NCI In Vivo Anticancer Drug Screen. Data for tumor model L1210 Leukemia (intraperitoneal) in B6D2F1 (BDF1) mice
Conditions: endpoint: mean survival time, higher = longer survival
How it was run: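 Ratio derived from survival: compound-dosed mice over vehicle-dosed mice, all bearing a transplantable tumor.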

[1] = dose: 100.0 mg/kg/injection, schedule: Q01DX001 (ip), vehicle: carboxymethylcellulose (CMC)
[2] = dose: 200.0 mg/kg/injection, schedule: Q01DX001 (ip), vehicle: carboxymethylcellulose (CMC)
[3] = dose: 400.0 mg/kg/injection, schedule: Q01DX001 (ip), vehicle: carboxymethylcellulose (CMC)
[4] = dose: 100.0 mg/kg/injection, schedule: Q01DX009 (ip), vehicle: saline with Tween-80
[5] = dose: 100.0 mg/kg/injection, schedule: Q04DX003 (ip), vehicle: saline
[6] = dose: 200.0 mg/kg/injection, schedule: Q01DX009 (ip), vehicle: saline with Tween-80
[7] = dose: 200.0 mg/kg/injection, schedule: Q04DX003 (ip), vehicle: saline
[8] = dose: 400.0 mg/kg/injection, schedule: Q01DX009 (ip), vehicle: saline with Tween-80
[9] = dose: 400.0 mg/kg/injection, schedule: Q04DX003 (ip), vehicle: saline
[10] = dose: 100.0 mg/kg/injection, schedule: Q01DX001 (ip), vehicle: saline
[11] = dose: 200.0 mg/kg/injection, schedule: Q01DX001 (ip), vehicle: saline
[12] = dose: 400.0 mg/kg/injection, schedule: Q01DX001 (ip), vehicle: saline
[13] = dose: 100.0 mg/kg/injection, schedule: Q04DX003 (ip), vehicle: Klucel (hydroxypropylcellulose) (HPC)
[14] = dose: 200.0 mg/kg/injection, schedule: Q04DX003 (ip), vehicle: Klucel (hydroxypropylcellulose) (HPC)
[15] = dose: 400.0 mg/kg/injection, schedule: Q04DX003 (ip), vehicle: Klucel (hydroxypropylcellulose) (HPC)
[16] = dose: 100.0 mg/kg/injection, schedule: Q04DX003 (ip), vehicle: saline with Tween-80
[17] = dose: 200.0 mg/kg/injection, schedule: Q04DX003 (ip), vehicle: saline with Tween-80
[18] = dose: 400.0 mg/kg/injection, schedule: Q04DX003 (ip), vehicle: saline with Tween-80
[19] = dose: 50.0 mg/kg/injection, schedule: Q01DX001 (ip), vehicle: saline
[20] = dose: 25.0 mg/kg/injection, schedule: Q04DX002 (ip), vehicle: Klucel (hydroxypropylcellulose) (HPC)
[21] = dose: 50.0 mg/kg/injection, schedule: Q04DX002 (ip), vehicle: Klucel (hydroxypropylcellulose) (HPC)
[22] = dose: 100.0 mg/kg/injection, schedule: Q04DX002 (ip), vehicle: Klucel (hydroxypropylcellulose) (HPC)

Measured: T/C

CC1CCCC1OC(=O)c1ccc([N+](=O)[O-])cc1 (stereo not drawn)
inactive: [1] 104 % of control | [2] 102 % of control | [3] 93 % of control

Cc1ccc(Cl)cc1NC(=O)Nc1ccccc1C(N)=O
inactive: dose: 100.0 mg/kg/injection, schedule: Q01DX001 (ip), vehicle: saline with Tween-80 98 % of control | [4] 100 % of control and 110 % of control | dose: 100.0 mg/kg/injection, schedule: Q04DX002 (ip), vehicle: saline with Tween-80 93 % of control and 102 % of control | [5] 97 % of control | dose: 200.0 mg/kg/injection, schedule: Q01DX001 (ip), vehicle: saline with Tween-80 92 % of control | [6] 109 % of control and 120 % of control | dose: 200.0 mg/kg/injection, schedule: Q04DX002 (ip), vehicle: saline with Tween-80 93 % of control and 98 % of control | [7] 95 % of control | dose: 400.0 mg/kg/injection, schedule: Q01DX001 (ip), vehicle: saline with Tween-80 101 % of control | [8] 105 % of control and 89 % of control | dose: 400.0 mg/kg/injection, schedule: Q04DX002 (ip), vehicle: saline with Tween-80 95 % of control and 102 % of control | [9] 103 % of control

CCOC(=O)OC(=O)CNC(=O)CN1C(=O)c2ccccc2C1=O
inactive: [10] 100 % of control | [11] 94 % of control | [12] 91 % of control

CC(=O)OC1=C(Cl)C(=O)c2ccccc2C1=O
inactive: dose: 75.0 mg/kg/injection, schedule: Q01DX001 (ip), vehicle: other 89 % of control | dose: 150.0 mg/kg/injection, schedule: Q01DX001 (ip), vehicle: other 94 % of control

CC(C)(C)N(O)C(=O)NC1CCCCC1
inactive: dose: 100.0 mg/kg/injection, schedule: Q01DX001 (ip), vehicle: Klucel (hydroxypropylcellulose) (HPC) 92 % of control | dose: 200.0 mg/kg/injection, schedule: Q01DX001 (ip), vehicle: Klucel (hydroxypropylcellulose) (HPC) 91 % of control | dose: 400.0 mg/kg/injection, schedule: Q01DX001 (ip), vehicle: Klucel (hydroxypropylcellulose) (HPC) 103 % of control

COC(=O)c1cc(C)c(Br)c(N)c1
inactive: dose: 100.0 mg/kg/injection, schedule: Q01DX009 (ip), vehicle: Klucel (hydroxypropylcellulose) (HPC) 101 % of control | [13] 100 % of control | dose: 200.0 mg/kg/injection, schedule: Q01DX009 (ip), vehicle: Klucel (hydroxypropylcellulose) (HPC) 101 % of control | [14] 92 % of control | dose: 400.0 mg/kg/injection, schedule: Q01DX009 (ip), vehicle: Klucel (hydroxypropylcellulose) (HPC) 98 % of control | [15] 95 % of control

CC(=O)Oc1cccc(/C=C/C(=O)O)c1
inactive: [4] 91 % of control | [16] 98 % of control | [6] 91 % of control | [17] 102 % of control | [8] 90 % of control | [18] 91 % of control

O=c1[nH]c(=S)[nH]c(-c2ccccc2)c1Cc1ccccc1
inactive: [19] 100 % of control | [10] 96 % of control | [11] 94 % of control | [12] 94 % of control

CCN(CC)CC(C)(N)c1c2ccccc2nc2c1ccc1ccccc12 (stereo not drawn)
inactive: dose: 50.0 mg/kg/injection, schedule: Q01DX009 (ip), vehicle: other 101 % of control | dose: 100.0 mg/kg/injection, schedule: Q01DX009 (ip), vehicle: other 111 % of control | dose: 200.0 mg/kg/injection, schedule: Q01DX009 (ip), vehicle: other 119 % of control

COc1ccc(CCO)c(OC)c1
inactive: dose: 50.0 mg/kg/injection, schedule: Q01DX001 (ip), vehicle: carboxymethylcellulose (CMC) 98 % of control | [1] 100 % of control | [2] 96 % of control | [3] 88 % of control

NNc1ccccc1
inactive: [10] 105 % of control | [11] 111 % of control

CC1(C)CC(Br)C(=O)c2ccccc21 (stereo not drawn)
inactive: [13] 100 % of control | [14] 105 % of control | [15] 97 % of control

CC1(O)CCCCCCC1
inactive: [19] 102 % of control | [10] 93 % of control | [11] 91 % of control

O=[N+]([O-])c1ccc2nc(-c3ccc(S(=O)(=O)F)cc3)cc(Cl)c2c1
inactive: [16] 98 % of control | [17] 106 % of control | [18] 98 % of control

CCCCOC1CC2c3ccccc3C1c1cccc[n+]12 (stereo not drawn)
inactive: dose: 12.5 mg/kg/injection, schedule: Q01DX009 (ip), vehicle: saline 111 % of control and 102 % of control | dose: 12.5 mg/kg/injection, schedule: Q04DX003 (ip), vehicle: saline 94 % of control and 101 % of control and 100 % of control | dose: 25.0 mg/kg/injection, schedule: Q01DX009 (ip), vehicle: saline 104 % of control and 98 % of control | dose: 25.0 mg/kg/injection, schedule: Q04DX003 (ip), vehicle: saline 100 % of control and 101 % of control | dose: 50.0 mg/kg/injection, schedule: Q04DX003 (ip), vehicle: saline 94 % of control and 88 % of control and 103 % of control

CCCCOc1cc([N+](=O)[O-])ccc1CO
inactive: [4] 109 % of control | [6] 98 % of control | [8] 98 % of control

O=Cc1c[nH]c2ccc(Br)cc12
inactive: [5] 95 % of control | [7] 105 % of control | [9] 95 % of control

CCCCCCCCCCCCOP(=S)(S)OCCCCCCCCCCCC (tested in a mixture with another compound)
inactive: dose: 25.0 mg/kg/injection, schedule: Q01DX009 (ip), vehicle: Klucel (hydroxypropylcellulose) (HPC) 94 % of control | [20] 87 % of control | dose: 50.0 mg/kg/injection, schedule: Q01DX009 (ip), vehicle: Klucel (hydroxypropylcellulose) (HPC) 91 % of control | [21] 90 % of control | [22] 99 % of control and 100 % of control

CCCCOCCOCCOCCO
inactive: dose: 100.0 mg/kg/injection, schedule: Q01DX009 (ip), vehicle: saline 98 % of control | [5] 98 % of control | dose: 200.0 mg/kg/injection, schedule: Q01DX009 (ip), vehicle: saline 98 % of control | [7] 98 % of control | dose: 400.0 mg/kg/injection, schedule: Q01DX009 (ip), vehicle: saline 102 % of control | [9] 97 % of control

O=C1NS(=O)(=O)CS(=O)(=O)N1
inactive: [10] 108 % of control | [11] 104 % of control | [12] 101 % of control

CCCCCCCCCCCCCCCCCCOc1ccc(Cl)cc1Cl
inactive: dose: 100.0 mg/kg/injection, schedule: Q04DX002 (ip), vehicle: other 98 % of control | dose: 200.0 mg/kg/injection, schedule: Q04DX002 (ip), vehicle: other 102 % of control | dose: 400.0 mg/kg/injection, schedule: Q04DX002 (ip), vehicle: other 102 % of control

O=C1NC2C3C=CC(C3)C12 (stereo not drawn)
inactive: [20] 114 % of control | [21] 93 % of control | [22] 119 % of control and 86 % of control
